Reference: ChEMBL document CHEMBL1201862, “PubChem BioAssay data set” (2004)
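How tested: cells in 96-well plates exposed to compound for 48 hours at five concentrations. The concentration for 50% growth inhibition is given as GI50.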 Activity calls are given as the source filed them. Rule as the data show it: active = GI50 up to about 1.1 µM and inactive = higher.

How the values were obtained:
Test in all cases: NCI tumour cell line growth inhibition, 48 h
[1] = system: NCI-H226
[2] = system: A498
[3] = system: MOLT-4
[4] = system: Malme-3M
[5] = system: DU-145
[6] = system: NCI-H460
[7] = system: SK-MEL-2
[8] = system: SK-OV-3
[9] = system: HCT-116
[10] = system: OVCAR-4
[11] = system: KM12
[12] = system: HL-60
[13] = system: NCI/ADR-RES
[14] = system: SR
[15] = system: MDA-N
[16] = system: NCI-H23
[17] = system: SNB-75
[18] = system: K562
[19] = system: T47D
[20] = system: MCF7
[21] = system: HOP-92
[22] = system: SK-MEL-5
[23] = system: PC-3
[24] = system: HT-29
[25] = system: UACC-257
[26] = system: TK-10
[27] = system: UO-31
[28] = system: LOX IMVI
[29] = system: SF-539
[30] = system: 786-0
[31] = system: SNB-19
[32] = system: OVCAR-8
[33] = system: MDA-MB-231
[34] = system: MDA-MB-435
[35] = system: U-251
[36] = system: HOP-62
[37] = system: RPMI-8226
[38] = system: HCT-15
[39] = system: SF-295
[40] = system: SW-620
[41] = system: Hs-578T
[42] = system: RXF 393
[43] = system: EKVX
[44] = system: UACC-62
[45] = system: NCI-H522
[46] = system: SN12C
[47] = system: A549
[48] = system: CAKI-1
[49] = system: M14
[50] = system: SF-268
[51] = system: IGROV-1
[52] = system: OVCAR-3
[53] = system: HCC 2998
[54] = system: CCRF-CEM
[55] = system: COLO 205
[56] = system: ACHN
[57] = system: SK-MEL-28
[58] = system: OVCAR-5
[59] = system: BT-549

Measured: GI50

COc1cc2c3c(c1)CCCN3CCC2
inactive: [1] > 10 µM | [2] > 10 µM | [3] > 10 µM | [4] > 10 µM | [5] > 10 µM | [6] > 10 µM | [7] > 10 µM | [8] > 10 µM | [9] > 10 µM | [10] > 10 µM | [11] > 10 µM | [12] > 10 µM | [13] > 10 µM | [14] > 10 µM | [15] > 10 µM | [16] > 10 µM | [17] > 10 µM | [18] > 10 µM | [19] > 10 µM | [20] > 10 µM | [21] > 10 µM | [22] > 10 µM | [23] > 10 µM | [24] > 10 µM | [25] > 10 µM | [26] > 10 µM | [27] > 10 µM | [28] > 10 µM | [29] > 10 µM | [30] > 10 µM | [31] > 10 µM | [32] > 10 µM | [33] > 10 µM | [34] > 10 µM | [35] > 10 µM | [36] > 10 µM | [37] > 10 µM | [39] > 10 µM | [40] > 10 µM | [41] > 10 µM | [42] > 10 µM | [43] > 10 µM | [44] > 10 µM | [45] > 10 µM | [46] > 10 µM | [47] > 10 µM | [48] > 10 µM | [49] > 10 µM | [50] > 10 µM | [51] > 10 µM | [52] > 10 µM | [53] > 10 µM | [54] > 10 µM | [55] > 10 µM | [56] > 10 µM | [57] > 10 µM
> 10 µM: [38]

CN(CCNC(=O)c1nn(C)c2c1Cc1ccccc1-2)CCNC(=O)c1nn(C)c2c1Cc1ccccc1-2
16.7 µM: [38]
inactive: [1] 18.3 µM | [2] 15.2 µM | [3] 12.4 µM | [4] 16.3 µM | [5] 17.9 µM | [58] 26.8 µM | [6] 16.4 µM | [59] 16.2 µM | [7] 14.7 µM | [8] 18.2 µM | [9] 15.1 µM | [10] 17.6 µM | [11] 19.1 µM | [12] 12.9 µM | [13] 21.4 µM | [15] 14.5 µM | [16] 15.4 µM | [17] 14.4 µM | [18] 12.7 µM | [19] 22.5 µM | [20] 11.1 µM | [21] 12.9 µM | [22] 12.1 µM | [23] 18.4 µM | [24] 14 µM | [25] 14 µM | [26] 15.7 µM | [27] 10.4 µM | [28] 16.4 µM | [29] 14.3 µM | [30] 14.5 µM | [31] 15.6 µM | [32] 17.5 µM | [33] 19 µM | [34] 15.2 µM | [35] 15.6 µM | [36] 15.4 µM | [39] 16 µM | [40] 18.7 µM | [42] 14.8 µM | [43] 23.2 µM | [44] 15.2 µM | [45] 16.2 µM | [46] 14.9 µM | [47] 15.8 µM | [48] 18.4 µM | [49] 12.6 µM | [50] 14.7 µM | [51] 8.55 µM | [52] 11.4 µM | [53] 12.5 µM | [55] 11.9 µM | [56] 14.5 µM | [57] 16.1 µM

CC(C)(C)c1cc[n+](C[n+]2ccc(C(C)(C)C)cc2)cc1
> 100 µM: [38]
inactive: [1] > 100 µM | [2] 53.6 µM | [3] > 100 µM | [4] > 100 µM | [5] > 100 µM | [58] > 100 µM | [6] > 100 µM | [7] > 100 µM | [8] > 100 µM | [9] > 100 µM | [10] > 100 µM | [11] > 100 µM | [12] > 100 µM | [13] > 100 µM | [14] > 100 µM | [15] > 100 µM | [16] > 100 µM | [17] > 100 µM | [18] > 100 µM | [19] > 100 µM | [20] > 100 µM | [21] > 100 µM | [22] > 100 µM | [23] > 100 µM | [24] > 100 µM | [26] > 100 µM | [27] > 100 µM | [29] > 100 µM | [30] > 100 µM | [31] > 100 µM | [32] > 100 µM | [33] > 100 µM | [34] > 100 µM | [35] > 100 µM | [36] > 100 µM | [37] > 100 µM | [39] > 100 µM | [40] > 100 µM | [41] > 100 µM | [42] > 100 µM | [43] > 100 µM | [44] > 100 µM | [45] > 100 µM | [46] > 100 µM | [47] > 100 µM | [48] > 100 µM | [49] > 100 µM | [50] > 100 µM | [51] > 100 µM | [52] > 100 µM | [53] > 100 µM | [54] > 100 µM | [55] > 100 µM | [56] > 100 µM | [57] > 100 µM

COC(=O)c1cc(C#N)[nH]c1-c1ccc(C)s1
inactive: [1] 37.6 µM | [2] 26.9 µM | [3] > 100 µM | [5] 30.6 µM | [58] 47.5 µM | [6] 82.2 µM | [59] 30.5 µM | [8] 55.5 µM | [9] > 100 µM | [10] 76.2 µM | [11] 92.7 µM | [13] 31.1 µM | [14] 63 µM | [15] > 100 µM | [16] 34 µM | [17] 25.3 µM | [18] > 100 µM | [19] 25.6 µM | [21] 30.2 µM | [23] 8.39 µM | [25] 64.7 µM | [27] 42.9 µM | [29] > 100 µM | [30] 98.2 µM | [31] > 100 µM | [32] 59.3 µM | [33] 38.6 µM | [34] 91.4 µM | [35] 95.5 µM | [36] 33 µM | [37] 51.3 µM | [39] 38.8 µM | [40] 43.9 µM | [42] 11.5 µM | [43] 19.5 µM | [44] 51.3 µM | [45] 36.1 µM | [46] 63.2 µM | [47] 46.2 µM | [48] 41.9 µM | [49] > 100 µM | [50] 42.2 µM | [52] 26.9 µM | [53] > 100 µM | [54] 53 µM | [55] 64.3 µM | [56] 41.3 µM | [57] 56.4 µM
41.6 µM: [38]

O=C(NNCc1ccc(Cl)cc1)Nc1cccc2ccccc12
> 100 µM: [38]
inactive: [1] > 100 µM | [3] 29.4 µM | [4] > 100 µM | [5] 69.2 µM | [58] 94.6 µM | [6] 41.5 µM | [59] 97.1 µM | [7] > 100 µM | [9] 63 µM | [10] > 100 µM | [11] 68.4 µM | [12] > 100 µM | [13] > 100 µM | [14] > 100 µM | [15] > 100 µM | [16] > 100 µM | [17] > 100 µM | [18] > 100 µM | [19] 28.6 µM | [20] 26.8 µM | [21] 29.3 µM | [22] 76.2 µM | [23] > 100 µM | [24] > 100 µM | [25] > 100 µM | [26] > 100 µM | [27] 84.1 µM | [28] > 100 µM | [29] 47.4 µM | [30] 51.6 µM | [31] > 100 µM | [32] > 100 µM | [34] 52.6 µM | [35] 58.5 µM | [36] 48.2 µM | [37] 16.4 µM | [39] 82 µM | [40] > 100 µM | [42] > 100 µM | [43] > 100 µM | [44] 90.4 µM | [45] 27.3 µM | [46] > 100 µM | [48] 42.7 µM | [49] > 100 µM | [50] 93.1 µM | [51] > 100 µM | [52] > 100 µM | [53] > 100 µM | [54] > 100 µM | [55] > 100 µM | [56] 45 µM | [57] > 100 µM
